The results in this text go back to patent US20150315212A1, “SUBSTITUTED 1,4-DITHIINE DERIVATIVES AND THEIR USE AS FUNGICIDES” (BASF SE, priority 2012, published 2015).

Assay [1] concerns Septoria tritici. The assay is described as follows: Preventative control of leaf blotch on wheat (Example 4). Format: in vivo. Conditions: 500 ppm, sprayed the day before inoculation, wheat seedlings, assessed after 4 weeks; untreated plants 90% infected.
In assay [2] the test system is Phakopsora pachyrhizi. The assay is described as follows: Protective control of soy bean rust on soy beans (Example 5). Conditions: 500 ppm, sprayed to run-off 1 day before inoculation, soy bean seedlings, assessed after fourteen days; untreated plants 90% infected. The format is in vivo.
Assay [3] has as its system Alternaria solani. Conditions: 500 ppm, sprayed the day before inoculation, tomato seedlings, assessed after 5 days; untreated plants 90% infected.
Description: Preventative Fungicidal Control of Early Blight on Tomatoes (Alternaria solani)
Young seedlings of tomato plants were grown in pots. These plants were sprayed to run-off with an aqueous suspension, containing the concentration of active ingredient or mixture mentioned in the table below. The next day, the treated plants were inoculated with an aqueous suspension of Alternaria solani. Then the trial plants were immediately transferred to a humid chamber. After 5 days at 18 to 20° C. and a relative humidity close to 100%, the extent of fungal attack on the leaves was visually assessed as % diseased leaf area.

Regarding “6-Methyl-5H-Pyrrolo[3″,4″:5,6][1,4]dithiino-[2,3-C]isothiazole-3-carbonitrile-5,7(6H)-dione [Example 1.1]”, the results for the “infection (% diseased leaf area)” value in assay [1], in assay [2] and in assay [3] were “less than or equal to 3%”, “less than or equal to 1%” and “less than or equal to 5%”, respectively.
